The values that follow come from ChEMBL document CHEMBL1149829, “Terpenoids Produced by Actinomycetes: Napyradiomycins from Streptomyces antimycoticus NT17” (2008).

Values after ≈ are worked out from the molar mass of the structure shown.

Holding throughout (assay type): functional
In one assay the test system is Bacillus subtilis. As to the kind of experiment: Antibacterial activity against Bacillus subtilis ATCC 6633 in Mueller Hinton agar medium.
In a further assay the test system is Enterococcus faecalis. As to the kind of experiment: Antibacterial activity against Enterococcus faecalis ATCC 19433 in Mueller Hinton agar medium.
Another assay concerns Streptococcus pyogenes. As to the kind of experiment: Antibacterial activity against Streptococcus pyogenes ATCC 12344 in Mueller Hinton agar medium.
For another assay, the system named is Enterococcus faecium. Kind of assay: Antibacterial activity against Enterococcus faecium ATCC 19434 in Mueller Hinton agar medium.
Another assay has as its system Staphylococcus aureus. Kind of assay: Antibacterial activity against Staphylococcus aureus 209P JC1 in Mueller Hinton agar medium.

Regarding `CC(C)=CCC/C(C)=C/C[C@@]12OC(C)(C)[C@H](Cl)C[C@]1(Cl)C(=O)C1=C(C2=O)C(=[N+]=[N-])C(=O)C=C1O`, the MIC worked out at 1 µM (≈ 0.507 µg/mL) with Bacillus subtilis; 31.6 µM (≈ 16 µg/mL) against Enterococcus faecalis; 7.8 µM (≈ 3.96 µg/mL) against Streptococcus pyogenes; 15.8 µM (≈ 8.02 µg/mL) in the assay on Enterococcus faecium; 2 µM (≈ 1.01 µg/mL) with Staphylococcus aureus.
As for `C=C1CC[C@H](Cl)C(C)(C)[C@@H]1C[C@@]12OC(C)(C)[C@H](Cl)C[C@]1(Cl)C(=O)C1=C(C2=O)C(=[N+]=[N-])C(=O)C=C1O`, the MIC against Bacillus subtilis came out at 3.7 µM (≈ 2 µg/mL); in the assay with Enterococcus faecalis, 14.8 µM (≈ 8.02 µg/mL); against Enterococcus faecium it was 14.8 µM (≈ 8.02 µg/mL); against Staphylococcus aureus, 3.7 µM (≈ 2 µg/mL).

The term MIC denotes the least concentration at which growth counts as inhibited. A high value points to weaker potency.
